Like-named read-outs stand apart in the source and are kept apart here. Positions of bridges follow the written chain, without caps; N, C: chain ends. Residues, ends and D or L forms follow the SMILES beside them.
Key:
[1] = molecular target: T1, human IR-A (holoIR-A) (Homo sapiens, UniProt P06213); test: holoIR-A competitive radioligand binding assay (scintillation proximity assay); settings: for Ki: IM172N22(-) mutant peptide set; for reduction in ki for hIR-A on substitution: relative to control peptide IM172N22 devoid of N-terminal phenylacetylation
T1 construct: expressed in transfected cells; host or cells: HEK293 (ATCC #CRL-1573), stably transfected; membrane preparation
Description: Cellular membranes were prepared from human embryonic kidney (HEK293; ATCC #CRL-1573) cells stably transfected with cDNA corresponding to human IR-A (holoIR-A) plus a C-terminal C9 tag ([…]) inserted within a pcDNA3.1 plasmid (Invitrogen), with positive clones selected with 800 μg mL^−1 neomycin and confirmed by Western Blot. Frozen cell pellets were thawed in ice-cold homogenization/resuspension buffer (50 mM Tris-HCl, pH 7.5) containing one cOmplete® protease inhibitor tablet with EDTA (Roche Diagnostics) per 50 mL buffer. Cells were homogenized with an overhead motor-driven Teflon-glass homogenizer using 15–20 strokes, followed by centrifugation at 1100 × g for 10 min at 4 °C. The supernatant was saved on ice, pellets were homogenized as before, and centrifuged at 1100 × g for 10 min at 4 °C. Both supernatants were combined and subsequently centrifuged at 35,000 × g for 60 min at 4 °C. The pellet was resuspended in buffer (4 to 5 mL g^−1 of starting cell paste) containing protease inhibitors and quick frozen in liquid nitrogen prior to storage at −80 °C. Protein concentration was determined using a BCA kit (Thermo Scientific) with bovine serum albumin (BSA) as standard.
The assays were performed with a scintillation proximity assay (SPA) method using polyvinyltoluene (PVT) wheat germ agglutinin-coupled SPA beads (Perkin Elmer). Assay buffer containing 50 mM Tris-HCl (pH 7.5), 150 mM NaCl, 0.1% w/v fatty-acid free BSA was used for all compound testing and reagent preparation. Ten-point concentration response curves with three-fold serial dilutions of test samples or controls were prepared in the assay buffer. […] Plates were sealed and shaken for 1 min on a plate shaker. Following a 10-h incubation and bead settling period at room temperature, radioactivity was determined using a MicroBeta Trilux scintillation counter (Perkin Elmer) and expressed as counts per minute (CPM). […] Samples were tested in three independent assay runs on three different days.
All test sample concentration responses were normalized to the control response and calculated as a percent of the maximal response after correcting for nonspecific binding as shown below: %Specific Inhibition=100%−[(CPM−MIN)/(MAX−MIN)×100%]
Percent specific binding (y-axis) was plotted vs log concentration of compound (x-axis) using Prism Version 9.3.1 (GraphPad Software). Individual measurements are provided as Source Data.

[2] = molecular target: T2, human holoIR-A over-expressed in HEK293 cells (Homo sapiens, UniProt P06213); test: Inhibition of hIR phosphorylation by peptides, co-incubated with BHI at its EC50 (ELISA); format: cell-based; settings: for hIRA Phosph IC50 Run 1 / hIRA Phosph IC50 Run 2 / hIRA Phosph IC50 Run 3: inhibition of insulin-stimulated phosphorylation; for hIRA Phosph IC50 Run 1: BHI at its EC50, run 1; for hIRA Phosph IC50 Run 2: BHI at its EC50, run 2; for hIRA Phosph IC50 Run 3: BHI at its EC50, run 3; for IC50: read-out: hIRA Phosph IC50 Mean
T2 construct: expressed in transfected cells; host or cells: HEK293, stably transfected
Description: Phosphorylation was quantified using an ELISA technique. Ninety-six well, flat-bottom microplates (Greiner Bio-One) were pre-coated with 2 µg mL^−1 anti-C9 monoclonal antibody (Rho 1D4; University of British Columbia)[27] in 20 mM sodium carbonate, pH 9.6, at 4 °C for overnight prior to the assay. On the assay day, plates were washed 3× with 0.1% Tween in 50 mM Tris Buffer Saline, pH 7.5 (TBST), and then blocked for greater than 1 h at room temperature (RT) with 1% BSA (Sigma) in TBST.
Stably transfected HEK293 cells over-expressing human holoIR-A containing a C-terminal C9 epitope tag ([…]), were plated at 6 × 10^4 cells per well serum-starved using 0.1% BSA in DMEM (Gibco) for overnight at standard tissue culture condition. […] After a 15-min incubation in lysis buffer at 4 °C, the lysate was transferred to anti-C9 antibody coated capture plate (Rho 1D4; University of British Columbia)[27]. […] After a 1 h incubation at room temperature, the secondary antibody was removed by washing 3× with TBST. Signal detection occurred with the addition of TMB, an HRP substrate (Pierce). After 5–10 min, the reaction was stopped by adding an equal volume of 2 M H2SO4, and the absorbance readings at 450 nm (A450) were recorded using a Envision plate reader (PerkinElmer). Samples were tested in three independent assay runs on three different days.
Percent specific response (y-axis) was plotted versus the log concentration of compound (x-axis) using Prism Version 9.3.1 (GraphPad Software). Individual measurements are provided as Source Data.

[3] = mean of 3 runs, read-out: hIRA Binding Ki Mean
[4] = run 1, read-out: hIRA Binding Ki Run 1
[5] = run 2, read-out: hIRA Binding Ki Run 2
[6] = run 3, read-out: hIRA Binding Ki Run 3

T1 sequence (P06213 28-1370 isoform P06213-2 limits assumed): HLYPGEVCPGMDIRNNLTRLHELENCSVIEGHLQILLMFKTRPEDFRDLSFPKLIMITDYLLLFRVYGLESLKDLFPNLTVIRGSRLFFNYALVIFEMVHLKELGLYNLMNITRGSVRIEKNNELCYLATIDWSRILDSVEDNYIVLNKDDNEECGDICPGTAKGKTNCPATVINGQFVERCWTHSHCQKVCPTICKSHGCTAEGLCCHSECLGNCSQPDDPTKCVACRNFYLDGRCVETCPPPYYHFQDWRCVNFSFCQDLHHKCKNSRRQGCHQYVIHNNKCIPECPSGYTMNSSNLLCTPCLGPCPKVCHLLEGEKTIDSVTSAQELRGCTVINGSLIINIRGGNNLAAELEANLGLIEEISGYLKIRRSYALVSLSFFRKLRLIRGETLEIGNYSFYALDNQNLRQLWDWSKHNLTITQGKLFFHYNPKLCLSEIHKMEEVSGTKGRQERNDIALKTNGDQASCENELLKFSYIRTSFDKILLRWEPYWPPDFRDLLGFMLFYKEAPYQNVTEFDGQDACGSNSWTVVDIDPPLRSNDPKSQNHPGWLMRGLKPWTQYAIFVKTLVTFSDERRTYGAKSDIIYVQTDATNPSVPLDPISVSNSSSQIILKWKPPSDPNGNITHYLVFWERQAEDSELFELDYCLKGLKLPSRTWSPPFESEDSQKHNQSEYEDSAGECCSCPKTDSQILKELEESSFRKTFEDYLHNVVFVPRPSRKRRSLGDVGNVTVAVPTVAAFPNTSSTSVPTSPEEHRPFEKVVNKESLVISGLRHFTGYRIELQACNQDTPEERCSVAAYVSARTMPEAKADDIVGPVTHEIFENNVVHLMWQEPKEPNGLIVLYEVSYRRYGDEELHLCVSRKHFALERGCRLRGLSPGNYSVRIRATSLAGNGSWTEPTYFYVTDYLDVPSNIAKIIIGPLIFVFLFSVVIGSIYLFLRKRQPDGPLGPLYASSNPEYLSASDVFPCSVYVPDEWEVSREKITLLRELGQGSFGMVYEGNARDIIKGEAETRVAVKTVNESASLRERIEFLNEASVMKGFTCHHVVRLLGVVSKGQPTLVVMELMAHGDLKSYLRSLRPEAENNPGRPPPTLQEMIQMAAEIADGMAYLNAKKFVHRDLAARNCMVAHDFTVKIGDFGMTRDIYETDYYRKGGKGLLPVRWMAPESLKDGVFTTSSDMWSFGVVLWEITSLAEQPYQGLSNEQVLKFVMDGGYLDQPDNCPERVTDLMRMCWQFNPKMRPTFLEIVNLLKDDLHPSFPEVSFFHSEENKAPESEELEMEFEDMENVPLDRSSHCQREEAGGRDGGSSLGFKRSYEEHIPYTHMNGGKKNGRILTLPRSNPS
T1 sequence (P06213 763-1382 partner limits assumed): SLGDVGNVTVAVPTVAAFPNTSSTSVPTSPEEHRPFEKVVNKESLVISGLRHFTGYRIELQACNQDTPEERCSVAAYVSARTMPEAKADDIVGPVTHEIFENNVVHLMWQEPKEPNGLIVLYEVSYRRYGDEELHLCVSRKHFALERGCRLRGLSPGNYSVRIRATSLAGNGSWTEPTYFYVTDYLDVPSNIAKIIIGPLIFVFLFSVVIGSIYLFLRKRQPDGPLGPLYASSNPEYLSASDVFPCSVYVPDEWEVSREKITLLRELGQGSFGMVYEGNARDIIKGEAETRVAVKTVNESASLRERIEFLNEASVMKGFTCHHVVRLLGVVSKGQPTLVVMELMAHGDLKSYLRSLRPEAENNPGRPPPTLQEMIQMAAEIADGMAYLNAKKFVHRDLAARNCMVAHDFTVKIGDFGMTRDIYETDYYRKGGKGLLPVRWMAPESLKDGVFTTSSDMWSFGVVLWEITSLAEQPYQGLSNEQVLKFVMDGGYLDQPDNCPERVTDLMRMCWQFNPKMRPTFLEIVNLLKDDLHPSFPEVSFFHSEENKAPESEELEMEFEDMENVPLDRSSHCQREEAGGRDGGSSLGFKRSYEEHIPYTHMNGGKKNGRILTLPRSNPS
T2 sequence (P06213 28-1370 isoform P06213-2 limits assumed): as the sequence (P06213 28-1370 isoform P06213-2 limits assumed) above
T2 sequence (P06213 763-1382 partner limits assumed): as the sequence (P06213 763-1382 partner limits assumed) above

Ki [1, 3] | Ki [1, 4] | Ki [1, 5] | Ki [1, 6] | reduction in ki for hIR-A on substitution [1] | hIRA Phosph IC50 Run 1 [2] | hIRA Phosph IC50 Run 2 [2] | hIRA Phosph IC50 Run 3 [2] | IC50 [2] | binding of the mutant peptide to hIR-A (in words) ([1]; alanine substitution in IM172N22(-)) | Structure (SMILES)
9.1 nM | 8.71 nM | 8.06 nM | 10.5 nM | lower than 5 fold | 119 nM | 127 nM | 121 nM | 122 nM | – | CC[C@H](C)[C@H](NC(=O)[C@H](CCC(N)=O)NC(=O)[C@H](C)NC(=O)[C@H](Cc1c[nH]c2ccccc12)NC(=O)[C@H](CCC(=O)O)NC(=O)[C@H](CCC(=O)O)NC(=O)[C@H](CCC(=O)O)NC(=O)[C@H](CC(C)C)NC(=O)[C@H](C)NC(C)=O)C(=O)N[C@@H](CCC(=O)O)C(=O)N[C@H]1CSSC[C@@H](C(=O)N2CCC[C@H]2C(=O)N2CCC[C@H]2C(=O)N[C@@H](CO)C(=O)N[C@@H](CCC(=O)O)C(=O)N[C@@H](CO)C(N)=O)NC(=O)[C@H](CCCNC(=N)N)NC(=O)CNC(=O)[C@H](Cc2ccc(O)cc2)NC(=O)[C@H](C(C)C)NC(=O)[C@H](CCC(=O)O)NC1=O [Peptide S1A] (Ac-ALEEEWAQIECEVYGRCPPSES-NH2; disulfide 11-17)
6.05 nM | 5.17 nM | 6.67 nM | 6.31 nM | lower than 5 fold | 84 nM | 92 nM | 99 nM | 91.9 nM | – | CC[C@H](C)[C@H](NC(=O)[C@H](C)NC(=O)[C@H](C)NC(=O)[C@H](Cc1c[nH]c2ccccc12)NC(=O)[C@H](CCC(=O)O)NC(=O)[C@H](CCC(=O)O)NC(=O)[C@H](CCC(=O)O)NC(=O)[C@H](CC(C)C)NC(=O)[C@H](CO)NC(C)=O)C(=O)N[C@@H](CCC(=O)O)C(=O)N[C@H]1CSSC[C@@H](C(=O)N2CCC[C@H]2C(=O)N2CCC[C@H]2C(=O)N[C@@H](CO)C(=O)N[C@@H](CCC(=O)O)C(=O)N[C@@H](CO)C(N)=O)NC(=O)[C@H](CCCNC(=N)N)NC(=O)CNC(=O)[C@H](Cc2ccc(O)cc2)NC(=O)[C@H](C(C)C)NC(=O)[C@H](CCC(=O)O)NC1=O [Peptide Q8A] (Ac-SLEEEWAAIECEVYGRCPPSES-NH2; disulfide 11-17)

Second part, the compound before the results:

Structure (SMILES) | Ki [1, 3] | Ki [1, 4] | Ki [1, 5] | Ki [1, 6] | reduction in ki for hIR-A on substitution [1] | hIRA Phosph IC50 Run 1 [2] | hIRA Phosph IC50 Run 2 [2] | hIRA Phosph IC50 Run 3 [2] | IC50 [2] | binding of the mutant peptide to hIR-A (in words) ([1]; alanine substitution in IM172N22(-))
CC[C@H](C)[C@H](NC(=O)[C@H](CCC(N)=O)NC(=O)[C@H](C)NC(=O)[C@H](Cc1c[nH]c2ccccc12)NC(=O)[C@H](CCCNC(=N)N)NC(=O)[C@H](CCC(=O)O)NC(=O)[C@H](CCC(=O)O)NC(=O)[C@H](CC(C)C)NC(=O)[C@H](CO)NC(C)=O)C(=O)N[C@@H](CCC(=O)O)C(=O)N[C@H]1CSSC[C@@H](C(=O)N2CCC[C@H]2C(=O)N2CCC[C@H]2C(=O)N[C@@H](CO)C(=O)N[C@@H](CCC(=O)O)C(=O)N[C@@H](CO)C(N)=O)NC(=O)[C@H](CCCNC(=N)N)NC(=O)CNC(=O)[C@H](Cc2ccc(O)cc2)NC(=O)[C@H](C(C)C)NC(=O)[C@H](CCC(=O)O)NC1=O [Peptide E5R] (Ac-SLEERWAQIECEVYGRCPPSES-NH2; disulfide 11-17) | 554 nM | 620 nM | 541 nM | 500 nM | – | 1351 nM | 1340 nM | 1323 nM | 1340 nM | –
CC[C@H](C)[C@H](NC(=O)[C@H](CCC(N)=O)NC(=O)[C@H](C)NC(=O)[C@H](Cc1c[nH]c2ccccc12)NC(=O)[C@H](C)NC(=O)[C@H](CCC(=O)O)NC(=O)[C@H](CCC(=O)O)NC(=O)[C@H](CC(C)C)NC(=O)[C@H](CO)NC(C)=O)C(=O)N[C@@H](CCC(=O)O)C(=O)N[C@H]1CSSC[C@@H](C(=O)N2CCC[C@H]2C(=O)N2CCC[C@H]2C(=O)N[C@@H](CO)C(=O)N[C@@H](CCC(=O)O)C(=O)N[C@@H](CO)C(N)=O)NC(=O)[C@H](CCCNC(=N)N)NC(=O)CNC(=O)[C@H](Cc2ccc(O)cc2)NC(=O)[C@H](C(C)C)NC(=O)[C@H](CCC(=O)O)NC1=O [Peptide E5A] (Ac-SLEEAWAQIECEVYGRCPPSES-NH2; disulfide 11-17) | 98 nM | 107 nM | 98 nM | 89.4 nM | – | 316 nM | 264 nM | 378 nM | 319 nM | –
CC[C@H](C)[C@H](NC(=O)[C@H](CCC(N)=O)NC(=O)[C@H](C)NC(=O)[C@H](Cc1c[nH]c2ccccc12)NC(=O)[C@H](CCC(=O)O)NC(=O)[C@H](CCC(=O)O)NC(=O)[C@H](CCC(=O)O)NC(=O)[C@H](CC(C)C)NC(=O)[C@H](CO)NC(C)=O)C(=O)N[C@@H](CCC(=O)O)C(=O)N[C@H]1CSSC[C@@H](C(=O)N2CCC[C@H]2C(=O)N2CCC[C@H]2C(=O)N[C@@H](CO)C(=O)N[C@@H](CCC(=O)O)C(=O)N[C@@H](CO)C(N)=O)NC(=O)[C@H](C)NC(=O)CNC(=O)[C@H](Cc2ccc(O)cc2)NC(=O)[C@H](C(C)C)NC(=O)[C@H](CCC(=O)O)NC1=O [Peptide R16A] (Ac-SLEEEWAQIECEVYGACPPSES-NH2; disulfide 11-17) | 228 nM | 211 nM | 237 nM | 235 nM | – | 583 nM | 517 nM | 744 nM | 615 nM | –
CC[C@H](C)[C@H](NC(=O)[C@H](CCC(N)=O)NC(=O)[C@H](C)NC(=O)[C@H](Cc1c[nH]c2ccccc12)NC(=O)[C@H](CCC(=O)O)NC(=O)[C@H](CCC(=O)O)NC(=O)[C@H](CCC(=O)O)NC(=O)[C@H](CC(C)C)NC(=O)[C@H](CO)NC(C)=O)C(=O)N[C@@H](CCC(=O)O)C(=O)N[C@H]1CSSC[C@@H](C(=O)N2CCC[C@H]2C(=O)N2CCC[C@H]2C(=O)N[C@@H](CO)C(=O)N[C@@H](CCC(=O)O)C(=O)N[C@@H](CO)C(N)=O)NC(=O)[C@H](CCCNC(=N)N)NC(=O)CNC(=O)[C@H](C)NC(=O)[C@H](C(C)C)NC(=O)[C@H](CCC(=O)O)NC1=O [Peptide Y14A] (Ac-SLEEEWAQIECEVAGRCPPSES-NH2; disulfide 11-17) | > 4240 nM | > 1210 nM | > 4160 nM | > 4240 nM | – | >10000 nM | >10000 nM | >10000 nM | > 10000 nM | no detectable binding

Source: article PMC9519552, “Activation of the human insulin receptor by non-insulin-related peptides” (Nature Communications, 2022)
